Measurements: patent publication US20240342292A1, “Compounds for the Degradation of EGFR Kinase” (BeiGene Switzerland GmbH, priority 2021, published 2024)

Legend:
L858R/T790M/C797S EGFR = molecular target: T1, L858R/T790M/C797S EGFR (Homo sapiens, UniProt P00533, C797S/L858R/T790M); experiment: EGFR degradation HTRF assay in H1975-clone #25 (LTC) cells; assay type: cell-based; conditions: 16h treatment; for DC50: HTRF; for Dmax: NCI-H1975, H1975 # 25-LTC (L858R/T790M/C797S)
T1 construct: expressed in transfected cells; host or cells: H1975 clone #25 (lentiviral over-expression, endogenous EGFR knocked out by sgRNA)
Outline: (§1)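 Cells carrying only lentiviral mutant EGFR, since endogenous alleles were removed by CRISPR, received compounds on day 2 for 16 h. Final concentrations ran from 10 uM down in 5-fold steps over 8 doses. After lysis, EGFR levels were quantified by HTRF and DC50 derived by curve fitting.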

Del19/T790M/C797S EGFR = experiment: EGFR degradation HTRF assay in H1975-clone #28 (DTC) cells; assay type: cell-based; conditions: H1975 # 28 DTC (Del19/T790M/C797S), 16h treatment; for DC50: HTRF; for Dmax (%): maximum percentage of degradation
Outline: as §1

[1] = H1975 # 25-LTC (L858R/T790M/C797S)
[2] = maximum percentage of degradation

Row | Compound | DC50 (L858R/T790M/C797S EGFR; [1]) [pM] | Dmax (L858R/T790M/C797S EGFR; [2]) [%] | DC50 (Del19/T790M/C797S EGFR) [pM] | Dmax (%) (Del19/T790M/C797S EGFR) | Dmax (%) (L858R/T790M/C797S EGFR; H1975 # 25-LTC (L858R/T790M/C797S), maximum percentage of degradation)
1 | Cc1cc2cc(n1)-c1cnn(C)c1OCC[C@@H]1C[C@H]1CN1/C(=N/C2=O)Nc2ccc(N3CCC(C(=O)N4CCN(c5cc(F)c([C@H]6CCC(=O)NC6=O)c(F)c5)CC4)CC3)cc21 [Example 367, (R)-3-(4-(4-(1-((71R,72S,E)-1^1,2^6-dimethyl-3-oxo-5^2,5^3-dihydro-1^1H,5^1H-10-oxa-4-aza-5(2,1)-benzo[d]imidazola-2(2,4)-pyridina-1(4,5)-pyrazola-7(1,2)-cyclopropanacyclodecaphane-5^6-yl)piperidine-4-carbonyl)piperazin-1-yl)-2,6-difluorophenyl)piperidine-2,6-dione] | 1310 | 87.8 | 623 | 80.77 | –
2 | Cc1cc2cc(n1)-c1cnn(C)c1OCCC[C@@H](C)CN1/C(=N/C2=O)Nc2ccc(CN3CC4CCC(C3)N4C(=O)[C@@H]3CCN(c4cc(F)c([C@H]5CCC(=O)NC5=O)c(F)c4)C3)cc21 [Example 83, (3R)-3-(2,6-difluoro-4-((3R)-3-(3-(((R,E)-1^1,2^6,7-trimethyl-3-oxo-5^2,5^3-dihydro-1^1H,5^1H-11-oxa-4-aza-5(2,1)-benzo[d]imidazola-2(2,4)-pyridina-1(4,5)-pyrazolacycloundecaphane-5^6-yl)methyl)-3,8-diazabicyclo[3.2.1]octane-8-carbonyl)pyrrolidin-1-yl)phenyl)piperidine-2,6-dione] | 2000 | 82.5 | 2000 | 73.0 | –
3 | Cc1cc2cc(n1)-c1cnn(C)c1OCCC[C@@H](C)CN1/C(=N/C2=O)Nc2ccc(C(=O)N(C)CCC3CCN(c4cc(F)c([C@H]5CCC(=O)NC5=O)c(F)c4)CC3)cc21 [Example 279, (R,E)-N-(2-(1-(4-((R)-2,6-dioxopiperidin-3-yl)-3,5-difluorophenyl)piperidin-4-yl)ethyl)-N,1^1,2^6,7-tetramethyl-3-oxo-5^2,5^3-dihydro-1^1H,5^1H-11-oxa-4-aza-5(2,1)-benzo[d]imidazola-2(2,4)-pyridina-1(4,5)-pyrazolacycloundecaphane-5^6-carboxamide] | 1330 | 83 | 750 | 82.08 | –
4 | Cc1cc2cc(n1)-c1cnn(C)c1OCCC[C@@H](C)CN1/C(=N/C2=O)Nc2ccc(C(=O)N[C@H]3CCN(CCc4cc(F)c([C@H]5CCC(=O)NC5=O)c(F)c4)C[C@@H]3F)cc21 [Example 342, (R,E)-N—((3S,4S)-1-(4-((R)-2,6-dioxopiperidin-3-yl)-3,5-difluorophenethyl)-3-fluoropiperidin-4-yl)-1^1,2^6,7-trimethyl-3-oxo-5^2,5^3-dihydro-1^1H,5^1H-11-oxa-4-aza-5(2,1)-benzo[d]imidazola-2(2,4)-pyridina-1(4,5)-pyrazolacycloundecaphane-5^6-carboxamide] | 620 | 90.8 | 607 | 77.52 | –
5 | Cc1cc2cc(n1)-c1cnn(C)c1OCCC[C@@H](C)CN1/C(=N/C2=O)Nc2ccc(N3CCN(C4CCN(c5cc(F)c([C@H]6CCC(=O)NC6=O)c(F)c5)CC4)[C@@H](CC#N)C3)cc21 [Example 452, 2-((S)-1-(1-(4-((R)-2,6-dioxopiperidin-3-yl)-3,5-difluorophenyl)piperidin-4-yl)-4-((R,E)-1^1,2^6,7-trimethyl-3-oxo-5^2,5^3-dihydro-1^1H,5^1H-11-oxa-4-aza-5(2,1)-benzo[d]imidazola-2(2,4)-pyridina-1(4,5)-pyrazolacycloundecaphane-5^6-yl)piperazin-2-yl)acetonitrile] | 980 | 78.5 | 1290 | 75.73 | –
6 | Cc1cc2cc(n1)-c1cnn(C)c1OCCC[C@@H](C)CN1/C(=N/C2=O)Nc2ccc(N3C[C@H](C)N(C4CCN(c5cc(F)c([C@H]6CCC(=O)NC6=O)c(F)c5)CC4)C[C@H]3C)cc21 [Example 380, (R)-3-(4-(4-((2S,5R)-2,5-dimethyl-4-((R,E)-1^1,2^6,7-trimethyl-3-oxo-5^2,5^1-dihydro-1^1H,5^1H-11-oxa-4-aza-5(2,1)-benzo[d]imidazola-2(2,4)-pyridina-1(4,5)-pyrazolacycloundecaphane-5^6-yl)piperazin-1-yl)piperidin-1-yl)-2,6-difluorophenyl)piperidine-2,6-dione] | 3350 | 80.2 | 2240 | 76.83 | –
7 | Cc1cc2cc(n1)-c1cnn(C)c1OCCC[C@@H](C)CN1/C(=N/C2=O)Nc2ccc(C(=O)N3CCC4(CC3)CN(CCc3cc(F)c([C@H]5CCC(=O)NC5=O)c(F)c3)C4)cc21 [Example 310, (R)-3-(2,6-difluoro-4-(2-(7-((R,E)-1^1,2^6,7-trimethyl-3-oxo-5^2,5^3-dihydro-1^1H,5^1H-11-oxa-4-aza-5(2,1)-benzo[d]imidazola-2(2,4)-pyridina-1(4,5)-pyrazolacycloundecaphane-5^6-carbonyl)-2,7-diazaspirononan-2-yl)ethyl)phenyl)piperidine-2,6-dione] | 464 | 87.8 | 578 | 80.51 | –
8 | (R)-3-(2,6-difluoro-4-(3-(7-(((R,E)-1^1,2^6,7-trimethyl-3-oxo-5^2,5^3-dihydro-1^1H,5^1H-11-oxa-4-aza-5(2,1)-benzo[d]imidazola-2(2,4)-pyridina-1(4,5)-pyrazolacycloundecaphane-5^6-yl)methyl)-2,7-diazaspiro[3.5]nonane-2-carbonyl)azetidin-1-yl)phenyl)piperidine-2,6-dione [Example 25] | 400 | – | 600 | 86.3 | 93.6
9 | Cc1cc2cc(n1)-c1cnn(C)c1OCCC[C@@H](C)CN1/C(=N/C2=O)Nc2ccc(N3CCN(C4CCN(c5cc(F)c([C@H]6CCC(=O)NC6=O)c(F)c5)CC4)[C@H](CO)C3)cc21 [Example 447, (R)-3-(2,6-difluoro-4-(4-((S)-2-(hydroxymethyl)-4-((R,E)-1^1,2^6,7-trimethyl-3-oxo-5^2,5^3-dihydro-1^1H,5^1H-11-oxa-4-aza-5(2,1)-benzo[d]imidazola-2(2,4)-pyridina-1(4,5)-pyrazolacycloundecaphane-5^6-yl)piperazin-1-yl)piperidin-1-yl)phenyl)piperidine-2,6-dione] | 652 | 84.2 | 645 | 76.31 | –
10 | Cc1cc2cc(n1)-c1cnn(C)c1OCCC[C@@H](C)CN1/C(=N/C2=O)Nc2ccc(C(=O)N(C)[C@@H]3CCN(CCNc4cc(F)c([C@H]5CCC(=O)NC5=O)c(F)c4)C[C@@H]3F)cc21 [Example 350, (R,E)-N—((3S,4R)-1-(2-((4-((R)-2,6-dioxopiperidin-3-yl)-3,5-difluorophenyl)amino)ethyl)-3-fluoropiperidin-4-yl)-N,1^1,2^6,7-tetramethyl-3-oxo-5^2,5^3-dihydro-1^1H,5^1H-11-oxa-4-aza-5(2,1)-benzo[d]imidazola-2(2,4)-pyridina-1(4,5)-pyrazolacycloundecaphane-5^6-carboxamide] | 614 | 90.4 | 662 | 86.74 | –
